Measured values as given in US10662409B2, “Methods of generating neural stem cells” (Trustees of Tufts College, priority 2015, dated 2020).
One block for each molecule: values may come before it.

Key:
Type in all cases: cell-based, human
[1] = system: GABA receptors; assay: Electrophysiology of 1-week hiNSC cultures, functionality of GABA receptors; conditions: hiNSCs cultured for one week
Description: hiNSCs were grown on poly-L-lysine coated coverslips (Corning) in neurobasal media supplemented with 2% B27 (Invitrogen), 1% Glutamax, and 1% antibiotic-antimycotic for 1-8 weeks. Recordings were performed at 34° C. For whole-cell patch clamp experiments, pipettes contained saline (in mM): 130 K-gluconate, 10 KCl, 0.1 CaCl2, 2 Mg-ATP, 1.1 EGTA, and 10 HEPES, pH 7.4 KOH. Bath saline contained the following (in mM): 140 NaCl, 2.5 KCl, 2.5 CaCl2, 1.2 MgCl2, 10 HEPES, and 11 glucose, pH 7.4 NaOH.
To determine the functionality of GABA receptors, 1-week hiNSC cultures were assessed via known electrophsysiology methods (e.g., voltage ramp) in order to determine the response of neurons resulting from provided hiNSCs both in the presence of muscimol and in its absence.

[2] = system: hiNSCs; assay: Differentiation of dissociated hiNSCs with retinoic acid added to basal media (immunostaining); conditions: retinoic acid 10-100 μM
Description: (§1) To encourage spontaneous differentiation, hiNSC colonies were enzymatically removed from MEF feeder layers using TrypLE (Invitrogen), then dissociated as much as possible by manually pipetting. This cell suspension was sometimes further separated into a single cell suspension using a […] cell strainer to remove larger clumps. Dissociated hiNSCs were plated and cultured on multiple substrates including CELLstart (Invitrogen), laminin (Roche) or gelatin in hiNSC basal media without bFGF or in neurobasal media supplemented with 2% B27 (Invitrogen), 1% Glutamax, and 1% antibiotic-antimycotic. hiNSC cells began to show differentiation into BIII-tubulin (TUJ1)-positive immature neurons with visible neurite extensions in as little as 4 days. After two weeks in basal media, hiNSC cells spontaneously differentiated into more mature neuronal and glial subtypes. Adding various amounts of retinoic acid (10-100 μM) caused cells to differentiate into more mature neuronal phenotypes in a shorter amount of time (˜8 days). […] For guided differentiation, Shh (500 ng/ml, Peprotech), FGF8 (500 ng/ml, Peprotech), and RA (R&D) at concentrations between 10-100 μM were used to facilitate neuronal and glial differentiation within shorter culture periods (˜7-8 days). For differentiation studies in undefined media, DMEM supplemented with 10% FBS and 1% antibiotic-antimycotic was used. […]

[3] = system: inhibitory GABA receptors; assay: Live Fluo-4AM calcium imaging of hiNSC cultures; conditions: two-week cultures; 200 μM picrotoxin just before imaging
Description: Cells plated onto coverslips or on 3D scaffolds were immersed in extracellular solution (NaCl 140 mM, KCl 2.8 mM, CaCl2 2 mM, MgCl2 2 mM, HEPES 10 mM, glucose 10 mM, pH=7.4, adjusted with NaOH). Fluo-4 (Invitrogen) calcium sensitive dye was mixed 1:1 with 20% Pluronic F127 (Invitrogen). Next, Fluo-4 was diluted to a final concentration of 1 μM in the extracellular buffer and pre-warmed to 37° C. The Fluo-4 1 μM solution was applied to cells and incubated at 37° C. for 1 hour. Upon incubation, cells were washed with the extracellular buffer to remove any unreacted dye. Cells were imaged using Olympus MVX10 macroscope (12.6× magnification) and Hamamatsu ORCA-Flash4.0 camera. The images were taken with the following setup: 15 ms exposure, 60 ms frame frequency, 512×512 pixel, 4×4 binning, […] over 3 minutes at room temperature. Some samples were treated with 200 μM picrotoxin (Sigma-Aldrich) just before imaging. The movie was created using ImageJ software (NIH).

[4] = system: hiNSCs; assay: Guided differentiation of hiNSCs into neuronal subtypes with growth factors in Neurobasal media (HB9 / TH immunostaining); conditions: added to Neurobasal media; one week in culture; FGF8 500 ng/ml, Shh 500 ng/ml
Description: as §1

Molecule: NCc1cc(=O)[nH]o1 [muscimol]
membrane potential response of hiNSCs to GABA agonist [1]: depolarizing response

Molecule: CC1=C(/C=C/C(C)=C/C=C/C(C)=C/C(=O)O)C(C)(C)CCC1 [retinoic acid]
time to differentiate into more mature neuronal phenotypes [2]: ~8 days

Molecule: picrotoxin
spontaneous calcium signaling in response to GABA receptor blocker [3]: significantly activated

staining of tyrosine hydroxylase (TH, marker of dopaminergic neurons) [4]: increase
B1: FGF8: fibroblast growth factor 8 (Peprotech) added to culture media (protein, UniProt P55075 23-233, looked up)
Fibroblast growth factor 8: QEGPGRGPALGRELASLFRAGREPQGVSQQHVREQSLVTDQLSRRLIRTYQLYSRTSGKHVQVLANKRINAMAEDGDPFAKLIVETDTFGSRVRVRGAETGLYICMNKKGKLIAKSNGKGKDCVFTEIVLENNYTALQNAKYEGWYMAFTRKGRPRKGSKTRQHQREVHFMKRLPRGHHTTEQSLRFEFLNYPPFTRSLRGSQRTWAPEPR
